Source: patent publication US20180258064A1, “SOLID FORMS OF 3-(5-AMINO-2-METHYL-4-OXO-4H-QUINAZOLIN-3-YL)-PIPERIDINE-2,6-DIONE, AND THEIR PHARMACEUTICAL COMPOSITIONS AND USES” (Celgene Corporation, priority 2017, published 2018)
Counter-ions that a name gives are not always drawn. One block for each compound: values may come before it.

How the values were obtained:
[1] = Dynamic Vapor Sorption (DVS); assay type: physicochemical; conditions: for DVS weight gain from 5 to 95% RH / DVS weight loss from 95 to 5% RH / DVS weight loss upon drying at 5% RH: 25° C.; for DVS weight gain from 5 to 95% RH: adsorption cycle 5 to 95% RH; for DVS weight loss from 95 to 5% RH: desorption cycle 95 to 5% RH
Protocol: DVS analysis was carried out using a TA Instruments Q5000 Dynamic Vapor Sorption analyzer. The instrument was calibrated with standard weights and a sodium bromide standard for humidity. Approximately 10-25 mg of sample was loaded into a metalcoated quartz pan for analysis. The sample was analyzed at 25° C. with a maximum equilibration time of one hour in 10% relative humidity (RH) steps from 5 to 95% RH (adsorption cycle) and from 95 to 5% RH (desorption cycle). The movement from one step to the next occurred either after satisfying the equilibrium criterion of 0.01% weight change or, if the equilibrium criterion was not met, after one hour. The percent weight change values were calculated using Microsoft Excel®.

[2] = Post-DVS XRPD (solid form after the DVS cycle); assay type: physicochemical; conditions: XRPD pattern after DVS
Excerpt: The Rigaku Smart-Lab X-ray diffraction system was configured for reflection Bragg-Brentano geometry using a line source X-ray beam. The x-ray source is a Cu Long Fine Focus tube that was operated at 40 kV and 44 mA. That source provides an incident beam profile at the sample that changes from a narrow line at high angles to a broad rectangle at low angles. Beam conditioning slits are used on the line X-ray source to ensure that the maximum beam size is less than 10 mm both along the line and normal to the line. The Bragg-Brentano geometry is a para-focusing geometry controlled by passive divergence and receiving slits with the sample itself acting as the focusing component for the optics. The inherent resolution of Bragg-Brentano geometry is governed in part by the diffractometer radius and the width of the receiving slit used. Typically, the Rigaku Smart-Lab is operated to give peak widths of 0.1° 2θ or less. The axial divergence of the X-ray beam is controlled by 5.0° Soller slits in both the incident and diffracted beam paths. Powder samples were prepared in a low background Si holder using light manual pressure to keep the sample surfaces flat and level with the reference surface of the sample holder. Each sample was analyzed from 2 to 40° 2θ using a continuous scan of 6° 2θ per minute with an effective step size of 0.02° 2θ. DVS analysis was carried out using a TA Instruments Q5000 Dynamic Vapor Sorption analyzer. The instrument was calibrated with standard weights and a sodium bromide standard for humidity. Approximately 10-25 mg of sample was loaded into a metalcoated quartz pan for analysis. The sample was analyzed at 25° C. with a maximum equilibration time of one hour in 10% relative humidity (RH) steps from 5 to 95% RH (adsorption cycle) and from 95 to 5% RH (desorption cycle). The movement from one step to the next occurred either after satisfying the equilibrium criterion of 0.01% weight change or, if the equilibrium criterion was not met, after one hour. The percent weight change values were calculated using Microsoft Excel®.

[3] = listed as Form A of the besylate salt of Compound 1
[4] = listed as Form A of the mesylate salt of Compound 1
[5] = listed as Form A of the sulfate salt of Compound 1
[6] = listed as Form A of the tosylate salt of Compound 1

DVS weight gain from 5 to 95% RH ([1]; listed as Besylate Form A): 4.31% gain from 5 to 95% RH
DVS weight gain from 5 to 95% RH [1, 3]: about 4.31%
DVS weight loss from 95 to 5% RH ([1]; listed as Besylate Form A): 4.31% loss from 95 to 5% RH
DVS weight loss from 95 to 5% RH [1, 3]: about 4.31%
DVS weight loss upon drying at 5% RH ([1]; listed as Besylate Form A): 0.16% loss upon drying at 5% RH
hygroscopicity ([1]; wording in text, based on DVS): moderately hygroscopic
Post-DVS XRPD ([2]; listed as Besylate Form A): Unchanged
Compound: Cc1nc2cccc(N)c2c(=O)n1C1CCC(=O)NC1=O (centres unmarked) [Compound 1 besylate salt Form A, 3-(5-amino-2-methyl-4-oxo-4H-quinazolin-3-yl)-piperidine-2,6-dione]

DVS weight gain from 5 to 95% RH [1, 4]: about 9.79%
DVS weight gain from 5 to 95% RH ([1]; listed as Mesylate Form A): 9.79% gain from 5 to 95% RH
DVS weight loss from 95 to 5% RH [1, 4]: about 7.98%
DVS weight loss from 95 to 5% RH ([1]; listed as Mesylate Form A): 7.98% loss from 95 to 5% RH
DVS weight loss upon drying at 5% RH ([1]; listed as Mesylate Form A): 0.17% loss upon drying at 5% RH
Post-DVS XRPD ([2]; listed as Mesylate Form A): Mesylate Form B
Compound: Cc1nc2cccc(N)c2c(=O)n1C1CCC(=O)NC1=O (centres unmarked) [Compound 1 mesylate salt Form A, 3-(5-amino-2-methyl-4-oxo-4H-quinazolin-3-yl)-piperidine-2,6-dione]

DVS weight gain from 5 to 95% RH [1, 5]: about 5.36%
DVS weight gain from 5 to 95% RH ([1]; listed as Sulfate Form A): 5.36% gain from 5 to 95% RH
DVS weight loss from 95 to 5% RH [1, 5]: about 5.63%
DVS weight loss from 95 to 5% RH ([1]; listed as Sulfate Form A): 5.63% loss from 95 to 5% RH
DVS weight loss upon drying at 5% RH ([1]; listed as Sulfate Form A): 0.21% loss on drying at 5% RH
Post-DVS XRPD [2]: unchanged
Post-DVS XRPD ([2]; listed as Sulfate Form A): Unchanged
Compound: Cc1nc2cccc(N)c2c(=O)n1C1CCC(=O)NC1=O (centres unmarked) [Compound 1 sulfate salt Form A, 3-(5-amino-2-methyl-4-oxo-4H-quinazolin-3-yl)-piperidine-2,6-dione]

DVS weight gain from 5 to 95% RH [1, 6]: about 1.15%
DVS weight gain from 5 to 95% RH ([1]; listed as Tosylate Form A): 1.15% gain from 5 to 95% RH
DVS weight loss from 95 to 5% RH [1, 6]: about 1.17%
DVS weight loss from 95 to 5% RH ([1]; listed as Tosylate Form A): 1.17% loss from 95 to 5% RH
DVS weight loss upon drying at 5% RH ([1]; listed as Tosylate Form A): 0.14% loss upon drying at 5%
Post-DVS XRPD ([2]; listed as Tosylate Form A): Tosylate form B
Compound: Cc1nc2cccc(N)c2c(=O)n1C1CCC(=O)NC1=O (centres unmarked) [Compound 1 tosylate salt Form A, 3-(5-amino-2-methyl-4-oxo-4H-quinazolin-3-yl)-piperidine-2,6-dione]
